According to US20200054633A1 (priority 2017, published 2020):

Details: 300 mg, OST placebo; N=74
From the text: This study followed a randomized, double-blind, placebo-controlled, parallel-group, multicenter design.
Analysis set for safety: Safety Set included all subjects who received at least 1 dose of study drug.

SMILES: O=C(O)[C@H]1C2CCC(CC2)[C@@H]1Nc1nc(-c2c[nH]c3ncc(F)cc23)ncc1F [Compound (1), Pimodivir]
- Any Serious TEAE: 0
- Any Serious TEAE at least possibly related to study medication: 0
- Any Severe (Grade 3) TEAE: 2 (2.7%)
- Any TEAE: 32
- Any TEAE at least possibly related to study medication: 9
- Any TEAE leading to a temporary stop of study medication: 2
- Any TEAE leading to permanent stop of study medication: 7
- Any TEAE with fatal outcome: 0
- Grade 3 TEAE: Anaemia: 0
- Grade 3 TEAE: Balance disorder: 0
- Grade 3 TEAE: Blood and lymphatic system disorders: 0
- Grade 3 TEAE: Blood creatine phosphokinase increased: 0
- Grade 3 TEAE: Bronchitis: 1 (1.4%)
- Grade 3 TEAE: Constipation: 0
- Grade 3 TEAE: Diarrhoea: 0
- Grade 3 TEAE: Fatigue: 1 (1.4%)
- Grade 3 TEAE: Gastrointestinal disorders: 0
- Grade 3 TEAE: General disorders and administration site conditions: 1 (1.4%)
- Grade 3 TEAE: Hyperkalaemia: 0
- Grade 3 TEAE: Infections and infestations: 1 (1.4%)
- Grade 3 TEAE: Investigations: 0
- Grade 3 TEAE: Lymphopenia: 0
- Grade 3 TEAE: Metabolism and nutrition disorders: 0
- Grade 3 TEAE: Nausea: 0
- Grade 3 TEAE: Nervous system disorders: 1 (1.4%)
- Grade 3 TEAE: Neutropenia: 0
- Grade 3 TEAE: Neutrophil count decreased: 0
- Grade 3 TEAE: Protein urine present: 0
- Grade 3 TEAE: Syncope: 1 (1.4%)
- Grade 3 TEAE: Thrombocytopenia: 0
- Grade 3 TEAE: Vomiting: 0
- TEAE: Abdominal discomfort: 0 n (%)
- TEAE: Abdominal pain: 0 n (%)
- TEAE: Abdominal pain upper: 0 n (%)
- TEAE: Abdominal tenderness: 0 n (%)
- TEAE: Alanine aminotransferase increased: 1 n (%)
- TEAE: All events: 32 n (%)
- TEAE: Anaemia: 0 n (%)
- TEAE: Aphthous stomatitis: 0 n (%)
- TEAE: Aspartate aminotransferase increased: 1 n (%)
- TEAE: Atrioventricular block first degree: 0 n (%)
- TEAE: Back pain: 1 n (%)
- TEAE: Bacterial vaginosis: 0 n (%)
- TEAE: Balance disorder: 0 n (%)
- TEAE: Blood and lymphatic system disorders: 3 n (%)
- TEAE: Blood bicarbonate decreased: 0 n (%)
- TEAE: Blood bilirubin decreased: 0 n (%)
- TEAE: Blood bilirubin increased: 1 n (%)
- TEAE: Blood creatine phosphokinase increased: 2 n (%)
- TEAE: Blood creatinine increased: 1 n (%)
- TEAE: Blood glucose increased: 1 n (%)
- TEAE: Blood potassium increased: 0 n (%)
- TEAE: Blood pressure diastolic increased: 0 n (%)
- TEAE: Blood urine: 1 n (%)
- TEAE: Bradycardia: 0 n (%)
- TEAE: Bronchitis: 1 n (%)
- TEAE: Cardiac disorders: 1 n (%)
- TEAE: Constipation: 0 n (%)
- TEAE: Contusion: 0 n (%)
- TEAE: Cough: 0 n (%)
- TEAE: Decreased appetite: 0 n (%)
- TEAE: Dehydration: 0 n (%)
- TEAE: Diabetes mellitus: 1 n (%)
- TEAE: Diarrhoea: 5 n (%)
- TEAE: Dizziness: 0 n (%)
- TEAE: Dry mouth: 0 n (%)
- TEAE: Dry skin: 0 n (%)
- TEAE: Dysgeusia: 0 n (%)
- TEAE: Dyspepsia: 1 n (%)
- TEAE: Dyspnoea: 1 n (%)
- TEAE: Dysuria: 0 n (%)
- TEAE: Ear and labyrinth disorders: 0 n (%)
- TEAE: Ear discomfort: 0 n (%)
- TEAE: Ecchymosis: 0 n (%)
- TEAE: Electrocardiogram ST segment depression: 0 n (%)
- TEAE: Enteritis: 0 n (%)
- TEAE: Fatigue: 1 n (%)
- TEAE: Fungal infection: 0 n (%)
- TEAE: Gamma-glutamyltransferase increased: 0 n (%)
- TEAE: Gastrointestinal disorders: 10 n (%)
- TEAE: General disorders and administration site conditions: 2 n (%)
- TEAE: Glomerular filtration rate decreased: 4 n (%)
- TEAE: Gout: 1 n (%)
- TEAE: HIV antibody positive: 0 n (%)
- TEAE: HIV test positive: 0 n (%)
- TEAE: Haematuria: 1 n (%)
- TEAE: Haemoglobin decreased: 2 n (%)
- TEAE: Haemoglobin increased: 0 n (%)
- TEAE: Headache: 2 n (%)
